Values quoted from earlier work, collected in patent publication US10159715B2, “Method for treating diabetes comprising long-acting insulin analogue conjugate and long-acting insulinotropic peptide conjugate” (HANMI PHARM. CO., LTD., priority 2014, dated 2018).

Assays:
[1] = tested on: type 2 diabetes-induced rodent model
[2] = in vivo

**Q.** Which “growth and differentiation of the beta cells / beta cell mass” value [1] does the source give for “GLP-1: incretin hormone secreted by L-cells of the ileum and colon; insulinotropic peptide” here?
**A.** increasing the beta cell mass

**Q.** And the half-life in blood [2]?
**A.** less than 2 minutes
